The text below walks through data of US9505786B2, “Substituted annulated triazines and use thereof” (BAYER INTELLECTUAL PROPERTY GMBH, priority 2012, dated 2016).

Assay [1] has as its system recombinant guanylate cyclase reporter cell line. Nature of the assay: Effect on a recombinant guanylate cyclase reporter cell line. The assay is classed as cell-based. How it is done:
B-2. Effect on a Recombinant Guanylate Cyclase Reporter Cell Line
The cellular activity of the compounds according to the invention is determined using a recombinant guanylate cyclase reporter cell line, as described in F. Wunder et al., Anal. Biochem. 339, 104-112 (2005).

Assay [2] concerns the target human phosphodiesterase 5 (PDE 5) (Homo sapiens (Human), UniProt O76074). The experiment in a line: Inhibition of human phosphodiesterase 5 (PDE 5), SPA assay. It is filed as biochemical. Particulars: PDE 5 preparation from human platelets, [8-3H] cGMP substrate. Here is the method:
B-6. Inhibition of Human Phosphodiesterase 5 (PDE 5)
PDE 5 preparations are obtained from human platelets by disruption (Microfluidizer®, 800 bar, 3 passes), followed by centrifugation (75 000 g, 60 min, 4° C.) and ion exchange chromatography of the supernatant on a Mono Q 10/10 column (linear sodium chloride gradient, elution with a 0.2-0.3M solution of sodium chloride in buffer (20 mM Hepes pH 7.2, 2 mM magnesium chloride). Fractions having PDE 5 activity are combined (PDE 5 preparation) and stored at −80° C.
To determine their in vitro action on human PDE 5, the test substances are dissolved in 100% DMSO and serially diluted. Typically, dilution series (1:3) from 200 μM to 0.091 μM are prepared (resulting final concentrations in the test: 4 μM to 0.0018 μM). In each case 2 μl of the diluted substance solutions are placed into the wells of microtitre plates (Isoplate-96/200W; Perkin Elmer). Subsequently, 50 μl of a dilution of the above-described PDE 5 preparation are added. The dilution of the PDE 5 preparation is chosen such that during the later incubation less than 70% of the substrate are converted (typical dilution: 1:100; dilution buffer: 50 mM Tris/hydrochloric acid pH 7.5, 8.3 mM magnesium chloride, 1.7 mM EDTA, 0.2% BSA). The substrate, [8-^3H] cyclic guanosine-3′,5′-monophosphate (1 μCi/μl; Perkin Elmer) is diluted 1:2000 with assay buffer (50 mM tris/hydrochloric acid pH 7.5, 8.3 mM magnesium chloride, 1.7 mM EDTA) to a concentration of 0.0005 μCi/μl. By addition of 50 μl (0.025 μCi) of the diluted substrate, the enzyme reaction is finally started. The test mixtures are incubated at room temperature for 60 min and the reaction is stopped by adding 25 μl of a suspension of 18 mg/ml yttrium scintillation proximity beads in water (phosphodiesterase beads for SPA assays, RPNQ 0150, Perkin Elmer). The microtitre plates are sealed with a film and left to stand at room temperature for 60 min. Subsequently, the plates are analysed for 30 s per well in a Microbeta scintillation counter (Perkin Elmer). IC50 values are determined using the graphic plot of the substance concentration against percentage PDE 5 inhibition.

A further assay relates to aorta rings. The experiment in a line: Vasorelaxant effect in vitro (phenylephrine-contracted aorta rings). The following applies: rabbit aorta rings, organ bath, phenylephrine contraction, read-out: IC50 (concentration needed to reduce the phenylephrine contraction by 50%). Here is the method: B-1. Vasorelaxant Effect In Vitro
Rabbits are stunned by a blow to the neck and exsanguinated. The aorta is removed, freed from adhering tissue and divided into rings of a width of 1.5 mm. The rings are placed individually under an initial tension in 5 ml organ baths with Krebs-Henseleit solution which is at 37° C., is gassed with carbogen and has the following composition (in each case mM): sodium chloride: 119; potassium chloride: 4.8; calcium chloride dihydrate: 1; magnesium sulphate heptahydrate: 1.4; potassium dihydrogenphosphate: 1.2; sodium bicarbonate: 25; glucose: 10. The contractile force is determined with Statham UC2 cells, amplified and digitalized using A/D transducers (DAS-1802 HC, Keithley Instruments Munich), and recorded in parallel on linear recorders.
To produce a contraction, phenylephrine is added to the bath cumulatively in increasing concentration. After several control cycles, the substance to be investigated is added in each further run in increasing dosage in each case, and the height of the contraction achieved is compared with the height of the contraction reached in the last preceding run. This is used to calculate the concentration needed to reduce the magnitude of the control value by 50% (IC50 value). The standard administration volume is 5 μl; the DMSO content in the bath solution corresponds to 0.1%.

Read-outs that look alike come from different tables or passages of the source.

For the compound `CC1(c2nncs2)C(=O)Nc2nc(-c3nn(Cc4ccccc4F)c4ncccc34)ncc21` (racemic) [Example 34, (rac) 2-[1-(2-Fluorobenzyl)-1H-pyrazolo[3,4-b]pyridin-3-yl]-5-methyl-5-(1,3,4-thiadiazol-2-yl)-5,7-dihydro-6H-pyrrolo[2,3-d]pyrimidin-6-one], the “MEC (minimum effective concentration)” value in assay [1] came out at 30 nM. Besides, the values for the IC50 (in assay [2]; in the assay on aorta rings (Oryctolagus cuniculus)) were 1200 nM and 218 nM, respectively.

Regarding `Cc1cccc(Cn2nc(-c3nnc4c(n3)NC(=O)C4(C)C)c3cc(F)cnc32)c1F` [Example 12, 3-[5-Fluoro-1-(2-fluoro-3-methylbenzyl)-1H-pyrazolo[3,4-b]pyridin-3-yl]-7,7-dimethyl-5,7-dihydro-6H-pyrrolo[2,3-e][1,2,4]triazin-6-one], the “MEC (minimum effective concentration)” value in assay [1] was determined as 100 nM. Also, the values for the IC50 (in assay [2]; with aorta rings (Oryctolagus cuniculus)) were 580 nM and 677 nM, respectively.

For `CCC1(C)C(=O)Nc2nc(-c3nn(Cc4ccccc4F)c4ncc(F)cc34)nnc21` (single isomer, unassigned) [Example 7-1, 7-Ethyl-3-[5-fluoro-1-(2-fluorobenzyl)-1H-pyrazolo[3,4-b]pyridin-3-yl]-7-methyl-5,7-dihydro-6H-pyrrolo[2,3-e][1,2,4]triazin-6-one], the figures for the IC50 (in assay [2]; in the assay on aorta rings) were 200 nM and 59 nM, respectively.

With `CCC1(C)C(=O)Nc2nc(-c3nn(Cc4ccccc4F)c4ncc(F)cc34)nnc21` (single isomer, unassigned) [Example 7-2, 7-Ethyl-3-[5-fluoro-1-(2-fluorobenzyl)-1H-pyrazolo[3,4-b]pyridin-3-yl]-7-methyl-5,7-dihydro-6H-pyrrolo[2,3-e][1,2,4]triazin-6-one], the IC50 worked out at 350 nM in assay [2] and 185 nM with aorta rings.

Take `COCCCc1nc(-c2nn(Cc3ccccc3F)c3ncccc23)nc2c1C(C)(C)C(=O)N2` [Example 46, 2-[1-(2-Fluorobenzyl)-1H-pyrazolo[3,4-b]pyridin-3-yl]-4-(3-methoxypropyl)-5,5-dimethyl-5,7-dihydro-6H-pyrrolo[2,3-d]pyrimidin-6-one]: in assay [1], the “MEC (minimum effective concentration)” value amounted to 100 nM. For the same compound, the IC50 in assay [2] turned out to be 120 nM; in the assay with aorta rings (Oryctolagus cuniculus), 71 nM.

With `C=CCC1(C)C(=O)Nc2nc(-c3nn(Cc4ccccc4F)c4ncc(F)cc34)nnc21` (racemic) [Example 51, (rac) 7-Allyl-3-[5-fluoro-1-(2-fluorobenzyl)-1H-pyrazolo[3,4-b]pyridin-3-yl]-7-methyl-5,7-dihydro-6H-pyrrolo[2,3-e][1,2,4]triazin-6-one], the “MEC (minimum effective concentration)” value in assay [1] is reported as 30 nM. In addition, the results for the IC50 (in assay [2]; in the assay on aorta rings (Oryctolagus cuniculus)) were 140 nM and 413 nM, respectively.

For the compound `Cc1nc2c(cc1F)c(-c1ncc3c(n1)NC(=O)C3(C)C)nn2Cc1ccccc1F` [Example 20, 2-[5-Fluoro-1-(2-fluorobenzyl)-6-methyl-1H-pyrazolo[3,4-b]pyridin-3-yl]-5,5-dimethyl-5,7-dihydro-6H-pyrrolo[2,3-d]pyrimidin-6-one], in assay [1], the “MEC (minimum effective concentration)” value came to 100 nM. Also, the IC50 is 920 nM in assay [2] and 345 nM with aorta rings (Oryctolagus cuniculus).

Consider `CC(C)Cc1nc(-c2nn(Cc3ccccc3F)c3ncccc23)nc2c1C(C)(C)C(=O)N2` [Example 29, 2-[1-(2-Fluorobenzyl)-1H-pyrazolo[3,4-b]pyridin-3-yl]-4-isobutyl-5,5-dimethyl-5,7-dihydro-6H-pyrrolo[2,3-d]pyrimidin-6-one], for which the “MEC (minimum effective concentration)” value in assay [1] is 100 nM. In addition, the IC50 in assay [2] was found to be 420 nM; in the assay on aorta rings (Oryctolagus cuniculus), 779 nM.

Consider `O=C1Nc2nc(-c3nn(Cc4ccccc4F)c4ncc(F)cc34)nnc2C12CCCC2` [Example 9, 3′-[5-Fluoro-1-(2-fluorobenzyl)-1H-pyrazolo[3,4-b]pyridin-3-yl]spiro[cyclopentane-1,7′-pyrrolo[2,3-e][1,2,4]triazin]-6′(5′H)-one], for which the “MEC (minimum effective concentration)” value in assay [1] is 30 nM. Further, the IC50 was 2000 nM in assay [2] and 198 nM in the assay on aorta rings (Oryctolagus cuniculus).

Take `NC1(C(F)(F)C(F)(F)F)C(=O)Nc2nc(-c3nn(Cc4ccccc4F)c4ncccc34)ncc21` (stereo not drawn) [Example 4, 5-Amino-2-[1-(2-fluorobenzyl)-1H-pyrazolo[3,4-b]pyridin-3-yl]-5-(pentafluoroethyl)-5,7-dihydro-6H-pyrrolo[2,3-d]pyrimidin-6-one]: in assay [1], the “MEC (minimum effective concentration)” value is given as 100 nM. The IC50 stood at 1300 nM in assay [2] and 215 nM with aorta rings (Oryctolagus cuniculus).

With `Cc1ncc(-c2nc(-c3nn(Cc4ccccc4F)c4ncccc34)nc3c2C(C)(C)C(=O)N3)s1` [Example 35, 2-[1-(2-Fluorobenzyl)-1H-pyrazolo[3,4-b]pyridin-3-yl]-5,5-dimethyl-4-(2-methyl-1,3-thiazol-5-yl)-5,7-dihydro-6H-pyrrolo[2,3-d]pyrimidin-6-one], the “MEC (minimum effective concentration)” value in assay [1] is given as 30 nM. Further, the IC50 in assay [2] is 120 nM; with aorta rings (Oryctolagus cuniculus) it was 496 nM.

Take `CCCc1nc(-c2nn(Cc3ccccc3F)c3ncccc23)nc2c1C(C)(C)C(=O)N2` [Example 32, 2-[1-(2-Fluorobenzyl)-1H-pyrazolo[3,4-b]pyridin-3-yl]-5,5-dimethyl-4-propyl-5,7-dihydro-6H-pyrrolo[2,3-d]pyrimidin-6-one]: the “MEC (minimum effective concentration)” value in assay [1] was 100 nM. In addition, the figures for the IC50 (in assay [2]; in the assay on aorta rings (Oryctolagus cuniculus)) were 110 nM and 244 nM, respectively.

For `CC1(CC2CC2)C(=O)Nc2nc(-c3nn(Cc4ccccc4F)c4ncc(F)cc34)nnc21` (racemic) [Example 5, 7-(Cyclopropylmethyl)-3-[5-fluoro-1-(2-fluorobenzyl)-1H-pyrazolo[3,4-b]pyridin-3-yl]-7-methyl-5,7-dihydro-6H-pyrrolo[2,3-e][1,2,4]triazin-6-one (racemate)], the “MEC (minimum effective concentration)” value in assay [1] came out at 100 nM. Besides, the IC50 in assay [2] worked out at 260 nM; in the assay on aorta rings (Oryctolagus cuniculus), 137 nM.

Regarding `Cn1c(C#N)ccc1-c1nc(-c2nn(Cc3ccccc3F)c3ncccc23)nc2c1C(C)(C)C(=O)N2` [Example 42, 5-{2-[1-(2-Fluorobenzyl)-1H-pyrazolo[3,4-b]pyridin-3-yl]-5,5-dimethyl-6-oxo-6,7-dihydro-5H-pyrrolo[2,3-d]pyrimidin-4-yl}-1-methyl-1H-pyrrole-2-carbonitrile], the “MEC (minimum effective concentration)” value in assay [1] is given as 10 nM. The IC50 turned out to be 1300 nM in assay [2] and 728 nM in the assay with aorta rings (Oryctolagus cuniculus).

For `Cn1nccc1-c1nc(-c2nn(Cc3ccccc3F)c3ncccc23)nc2c1C(C)(C)C(=O)N2` [Example 40, 2-[1-(2-Fluorobenzyl)-1H-pyrazolo[3,4-b]pyridin-3-yl]-5,5-dimethyl-4-(1-methyl-1H-pyrazol-5-yl)-5,7-dihydro-6H-pyrrolo[2,3-d]pyrimidin-6-one], the “MEC (minimum effective concentration)” value in assay [1] worked out at 30 nM. The IC50 was found to be 250 nM in assay [2] and 227 nM with aorta rings (Oryctolagus cuniculus).

Regarding `CC1(CC2CC2)C(=O)Nc2nc(-c3nn(Cc4ccccc4F)c4ncc(F)cc34)nnc21` (single isomer, unassigned) [Example 5-2, 7-(Cyclopropylmethyl)-3-[5-fluoro-1-(2-fluorobenzyl)-1H-pyrazolo[3,4-b]pyridin-3-yl]-7-methyl-5,7-dihydro-6H-pyrrolo[2,3-e][1,2,4]triazin-6-one], the IC50 was 250 nM in assay [2] and 661 nM in the assay with aorta rings.
